# Test results from patent US20150338397A1, “Use of Bufodienolides in Diagnosing and Treating Essential Hypertension” (priority 2014, published 2015).
# Legend:
# [1] = in vitro; cited from earlier work
# [2] = tested on: rodent brain contusion model; conditions: given 1 hour after the insult; cited from earlier work
# [3] = tested on: animals subjected to angiotensin excess; conditions: cited from earlier work
# [4] = tested on: volume expansion-mediated hypertension; conditions: experimental animals; cited from earlier work
# [5] = tested on: volume expansion induced hypertensive rats; test: Systolic blood pressure in saline volume expansion induced hypertensive rats (NDS); type: in vivo; conditions: NDS rats given resibufogenin (NDSR) vs NDS; FIG. 1
# Description: (§1) FIG. 1. Mean systolic blood pressure (BP) values in sham (SHM) animals, angiotensin-infused rats (ANG), angiotensin infused animals given resibufogenin (ANGR), normal rats rendered hypertensive by the infusion of saline (volume expansion induced hypertensive rats) (NDS), NDS rats given resibufogenin (NDSR).
# angiotensin-infused rats = test: Systolic blood pressure in angiotensin-infused rats (ANG); type: in vivo; conditions: FIG. 1
# Description: as §1
# [6] = tested on: preeclampsia in animal models; conditions: cited from earlier work
molecule,measurement,setting,value
"C[C@]12CC[C@H](O)C[C@@]1(O)CC[C@@H]1[C@@H]2CC[C@]2(C)[C@@H](c3ccc(=O)oc3)C[C@H]3O[C@]132 [MBG, marinobufagenin]",Vasoconstrictor action,[1],acts in vitro as a vasoconstrictor
"C[C@]12CC[C@H](O)C[C@H]1CC[C@@H]1[C@@H]2CC[C@]2(C)[C@@H](c3ccc(=O)oc3)C[C@H]3O[C@]132 [RBG, epoxy-3β-hydroxy-5β-bufa-20,22-dienolide]",Tissue injury,[2],amelioration of tissue injury
same,Elevated blood pressure,[3],does not lower elevated blood pressure
same,Blood pressure elevations,[4],resolves blood pressure elevations
same,Mean systolic blood pressure (BP),[5],reduced blood pressure
same,Mean systolic blood pressure (BP),angiotensin-infused rats; angiotensin infused animals given resibufogenin (ANGR) vs ANG,only in the volume expanded animals
same,Prevention of preeclampsia,[6],prevents preeclampsia
"angiotensin (DRVYIHPF; Angiotensin-2; UniProt P01019 25-32, looked up) [the major vasoconstrictor in the human body; infused to render rats hypertensive]","Mean systolic blood pressure (BP), effect of angiotensin infusion",angiotensin-infused rats; angiotensin-infused rats (ANG) vs sham (SHM),raised blood pressure equivalently
